From patent publication US10405547B2, “Substituted cyclic amides as herbicides” (FMC Corporation, priority 2015, dated 2019)

Legend:
Format in all cases: in vivo
[1] = system: barnyardgrass (Echinochloa crus-galli); test: Test A preemergence, barnyardgrass; conditions: 0 to 100 scale (0 no effect, 100 complete control)
Procedure, shortened: (§1)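 Greenhouse test: compounds in solvent with surfactant sprayed onto loam–sand soil after planting (preemergence) or onto plants 2-10 cm at the one- to two-leaf stage (postemergence). Injury visually rated versus untreated controls after about 10 days on a 0-100 scale (100 = complete control).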

kochia (Kochia scoparia) [2] = test: Test A preemergence, kochia; conditions: 0 to 100 scale (0 no effect, 100 complete control)
Procedure, shortened: as §1

[3] = system: ragweed (common ragweed, Ambrosia elatior); test: Test A preemergence, ragweed; conditions: 0 to 100 scale (0 no effect, 100 complete control)
Procedure, shortened: as §1

[4] = system: ryegrass, Italian (Lolium multiflorum); test: Test A preemergence, Italian ryegrass; conditions: 0 to 100 scale (0 no effect, 100 complete control)
Procedure, shortened: as §1

[5] = system: foxtail, giant (Setaria faberii); test: Test A preemergence, giant foxtail; conditions: 0 to 100 scale (0 no effect, 100 complete control)
Procedure, shortened: as §1

[6] = system: pigweed (Amaranthus retroflexus); test: Test A preemergence, pigweed; conditions: 0 to 100 scale (0 no effect, 100 complete control)
Procedure, shortened: as §1

[7] = system: barnyardgrass (Echinochloa crus-galli); test: Test A postemergence, barnyardgrass; conditions: visual injury, 0 to 100 scale (0 no effect, 100 complete control), approximately 10 days
Procedure, shortened: as §1

kochia (Kochia scoparia) [8] = test: Test A postemergence, kochia; conditions: visual injury, 0 to 100 scale (0 no effect, 100 complete control), approximately 10 days
Procedure, shortened: as §1

[9] = system: ragweed (common ragweed, Ambrosia elatior); test: Test A postemergence, ragweed; conditions: visual injury, 0 to 100 scale (0 no effect, 100 complete control), approximately 10 days
Procedure, shortened: as §1

[10] = system: ryegrass, Italian (Lolium multiflorum); test: Test A postemergence, Italian ryegrass; conditions: visual injury, 0 to 100 scale (0 no effect, 100 complete control), approximately 10 days
Procedure, shortened: as §1

[11] = system: foxtail, giant (Setaria faberii); test: Test A postemergence, giant foxtail; conditions: visual injury, 0 to 100 scale (0 no effect, 100 complete control), approximately 10 days
Procedure, shortened: as §1

[12] = system: pigweed (Amaranthus retroflexus); test: Test A postemergence, pigweed; conditions: visual injury, 0 to 100 scale (0 no effect, 100 complete control), approximately 10 days
Procedure, shortened: as §1

[13] = system: blackgrass (Alopecurus myosuroides); test: Test A postemergence, blackgrass; conditions: visual injury, 0 to 100 scale (0 no effect, 100 complete control), approximately 10 days
Procedure, shortened: as §1

[14] = system: galium (catchweed bedstraw, Galium aparine); test: Test A postemergence, galium; conditions: visual injury, 0 to 100 scale (0 no effect, 100 complete control), approximately 10 days
Procedure, shortened: as §1

[15] = system: wheat (Triticum aestivum); test: Test A postemergence, wheat; conditions: visual injury, 0 to 100 scale (0 no effect, 100 complete control), approximately 10 days
Procedure, shortened: as §1

corn (Zea mays) = test: Test A postemergence, corn; conditions: visual injury, 0 to 100 scale (0 no effect, 100 complete control), approximately 10 days
Procedure, shortened: as §1

rice (Oryza sativa) = test: Test B flooded paddy test, rice; conditions: applied to paddy water, visual rating after 13 to 15 days, scale 0 (no effect) to 100 (complete control)
Procedure, shortened: (§2)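 Compound was added to standing water 3 cm above soil, flood maintained, and plants held in a greenhouse before visual scoring against controls at 13 to 15 days.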

[16] = system: sedge, umbrella (small-flower umbrella sedge, Cyperus difformis); test: Test B flooded paddy test, umbrella sedge; conditions: applied to paddy water, visual rating after 13 to 15 days, scale 0 (no effect) to 100 (complete control)
Procedure, shortened: as §2

[17] = system: ducksalad (Heteranthera limosa); test: Test B flooded paddy test, ducksalad; conditions: applied to paddy water, visual rating after 13 to 15 days, scale 0 (no effect) to 100 (complete control)
Procedure, shortened: as §2

[18] = system: barnyardgrass (Echinochloa crus-galli); test: Test B flooded paddy test, barnyardgrass; conditions: applied to paddy water, visual rating after 13 to 15 days, scale 0 (no effect) to 100 (complete control)
Procedure, shortened: as §2

| SMILES | Plant response rating, Barnyardgrass ([1]; 125 g ai/ha) | Plant response rating, Barnyardgrass ([1]; 500 g ai/ha) | Plant response rating, Kochia (kochia (Kochia scoparia) [2]; 125 g ai/ha) | Plant response rating, Kochia (kochia (Kochia scoparia) [2]; 500 g ai/ha) | Plant response rating, Ragweed ([3]; 125 g ai/ha) | Plant response rating, Ragweed ([3]; 500 g ai/ha) | Plant response rating, Ryegrass, Italian ([4]; 125 g ai/ha) | Plant response rating, Ryegrass, Italian ([4]; 500 g ai/ha) | Plant response rating, Foxtail, Giant ([5]; 125 g ai/ha) | Plant response rating, Foxtail, Giant ([5]; 500 g ai/ha) | Plant response rating, Pigweed ([6]; 125 g ai/ha) | Plant response rating, Pigweed ([6]; 500 g ai/ha) | Plant response rating, Barnyardgrass ([7]; 125 g ai/ha) | Plant response rating, Barnyardgrass ([7]; 500 g ai/ha) | Plant response rating, Kochia (kochia (Kochia scoparia) [8]; 125 g ai/ha) | Plant response rating, Kochia (kochia (Kochia scoparia) [8]; 500 g ai/ha) | Plant response rating, Ragweed ([9]; 125 g ai/ha) | Plant response rating, Ragweed ([9]; 500 g ai/ha) | Plant response rating, Ryegrass, Italian ([10]; 125 g ai/ha) | Plant response rating, Ryegrass, Italian ([10]; 500 g ai/ha) | further results |
| --- | --- | --- | --- | --- | --- | --- | --- | --- | --- | --- | --- | --- | --- | --- | --- | --- | --- | --- | --- | --- | --- |
| O=C1NCC(c2ccccc2Cn2ccc(C(F)(F)F)n2)C1C(=O)Nc1ccccc1F (stereo not drawn) [Compound 59] | 0 | 40 | 0 | 0 | 0 | 0 | 0 | 0 | 0 | 50 | 0 | 0 | 0 | 30 | 0 | 0 | 0 | 0 | 0 | 0 | Plant response rating, Foxtail, Giant ([11]; 125 g ai/ha): 0; Plant response rating, Foxtail, Giant ([11]; 500 g ai/ha): 20; Plant response rating, Pigweed ([12]; 125 g ai/ha): 0; Plant response rating, Pigweed ([12]; 500 g ai/ha): 0; Plant response rating, Blackgrass ([13]; 125 g ai/ha): 0; Plant response rating, Blackgrass ([13]; 500 g ai/ha): 0; Plant response rating, Galium ([14]; 125 g ai/ha): 0; Plant response rating, Galium ([14]; 500 g ai/ha): 0; Plant response rating, Wheat ([15]; 125 g ai/ha): 0; Plant response rating, Wheat ([15]; 500 g ai/ha): 0; Plant response rating, Corn (corn (Zea mays); 125 g ai/ha): 0; Plant response rating, Corn (corn (Zea mays); 500 g ai/ha): 0; Plant response rating, Rice (Flood) (rice (Oryza sativa); 250 g ai/ha): 0; Plant response rating, Sedge, Umbrella (Flood) ([16]; 250 g ai/ha): 0; Plant response rating, Ducksalad (Flood) ([17]; 250 g ai/ha): 0; Plant response rating, Barnyardgrass (Flood) ([18]; 250 g ai/ha): 0 |
| O=C1NCC(c2cccc(OCc3ccccc3)c2)C1C(=O)Nc1ccccc1F (stereo not drawn) [Compound 63] | 0 | 0 | 0 | 0 | 0 | 0 | 0 | 0 | 0 | 0 | 0 | 0 | 0 | 0 | 0 | 0 | 0 | 0 | 0 | 0 | Plant response rating, Foxtail, Giant ([11]; 125 g ai/ha): 0; Plant response rating, Foxtail, Giant ([11]; 500 g ai/ha): 0; Plant response rating, Pigweed ([12]; 125 g ai/ha): 0; Plant response rating, Pigweed ([12]; 500 g ai/ha): 0; Plant response rating, Blackgrass ([13]; 125 g ai/ha): 0; Plant response rating, Blackgrass ([13]; 500 g ai/ha): 0; Plant response rating, Galium ([14]; 125 g ai/ha): 0; Plant response rating, Galium ([14]; 500 g ai/ha): 0; Plant response rating, Wheat ([15]; 125 g ai/ha): 0; Plant response rating, Wheat ([15]; 500 g ai/ha): 0; Plant response rating, Corn (corn (Zea mays); 125 g ai/ha): 0; Plant response rating, Corn (corn (Zea mays); 500 g ai/ha): 0; Plant response rating, Rice (Flood) (rice (Oryza sativa); 500 g ai/ha): 0; Plant response rating, Sedge, Umbrella (Flood) ([16]; 500 g ai/ha): 0; Plant response rating, Ducksalad (Flood) ([17]; 500 g ai/ha): 35; Plant response rating, Barnyardgrass (Flood) ([18]; 500 g ai/ha): 0 |
| O=C1NCC(c2cccc(OCc3ccccc3)c2)C1C(=O)Nc1ccc(F)cc1F (stereo not drawn) [Compound 64] | 0 | 0 | 0 | 0 | 0 | 0 | 0 | 0 | 0 | 0 | 0 | 0 | 0 | 0 | 0 | 0 | 0 | 0 | 0 | 0 | Plant response rating, Foxtail, Giant ([11]; 125 g ai/ha): 0; Plant response rating, Foxtail, Giant ([11]; 500 g ai/ha): 0; Plant response rating, Pigweed ([12]; 125 g ai/ha): 0; Plant response rating, Pigweed ([12]; 500 g ai/ha): 0; Plant response rating, Blackgrass ([13]; 125 g ai/ha): 0; Plant response rating, Blackgrass ([13]; 500 g ai/ha): 0; Plant response rating, Galium ([14]; 125 g ai/ha): 0; Plant response rating, Galium ([14]; 500 g ai/ha): 0; Plant response rating, Wheat ([15]; 125 g ai/ha): 0; Plant response rating, Wheat ([15]; 500 g ai/ha): 0; Plant response rating, Corn (corn (Zea mays); 125 g ai/ha): 0; Plant response rating, Corn (corn (Zea mays); 500 g ai/ha): 0; Plant response rating, Rice (Flood) (rice (Oryza sativa); 500 g ai/ha): 0; Plant response rating, Sedge, Umbrella (Flood) ([16]; 500 g ai/ha): 0; Plant response rating, Ducksalad (Flood) ([17]; 500 g ai/ha): 35; Plant response rating, Barnyardgrass (Flood) ([18]; 500 g ai/ha): 0 |
